Laboratory results as given in US4237140A, “Analgesic mixture of nalbuphine and acetaminophen” (E. I. Du Pont de Nemours and Company, priority 1979, dated 1980).
Counter-ions that a name gives are not always drawn.

System: phenyl-p-benzoquinone induced writhing in mice
Assay: mouse antiphenylquinone writhing test (oral analgesic activity)
Details: for ED50: Mus musculus, po, 5 min; for peak time for analgesia: preliminary experiment, drug alone
Protocol: Male CF1 mice obtained from Charles River Breeding Laboratories, fasted for 16-22 hours, and weighing 18-22 g at the time of testing are used throughout. All mice are dosed orally with acetaminophen and/or nalbuphine (calculated as the hydrochloride salt) dissolved completely in distilled water containing as vehicle 2% by volume of Tween 80®, a pharmacological dispersant manufactured by Fisher Scientific Company and containing 100% polysorbate 80. A dosing volume of 20 ml/kg is used. All doses are coded and the test is performed under a code not known to the observer.
Mice, intubated with various doses of nalbuphine HCl, acetaminophen, combined doses of nalbuphine.HCl and acetaminophen, or vehicle, are injected intraperitoneally with a challenge dose of phenyl-p-benzoquinone.The phenyl-p-benzoquinone is prepared as a 0.1 mg/ml solution in 5% by volume of ethanol in water; the writhing dose is 1.25 mg/kg injected at the rate of 0.25 ml/20 g. For scoring purposes a "writhe" is indicated by whole body stretching or contraction of the abdomen: mice are observed 10 minutes for the presence or absence of writhing beginning 5 minutes after receiving the phenyl-p-benzoquinone dose. Each mouse is used only once, then discarded.
Initially the time of peak activity is determined separately for each drug in the antiphenylquinone writhing test. Then several doses of each drug alone and in precise nalbuphine.HCl/acetaminophen ratios are given orally at or near the time of peak analgesic effects.
All ED50 values are determined numerically by the moving average method of Thompson (W. F. Thompson: Bacteriological Rev. 11, 115-145, 1947) and 95% confidence limits are calculated according to the method of Litchfield and Wilcoxon (J. T. Litchfield, Jr. and F. Wilcoxon: J. Pharm. Exp. Ther. 96, 99-113, 1949).

Row | Structure (SMILES) | ED50 [mg/kg] | ED50 AT 5 MIN., Acetaminophen (Table 1, oral, acetaminophen component dose (alone or in combination), 95% confidence limits printed on adjacent line) [mg/kg] | % MICE BLOCKED (oral, nalbuphine.HCl 0, acetaminophen 29.8 mg/kg) [%] | % MICE BLOCKED (oral, nalbuphine.HCl 0, acetaminophen 59.5 mg/kg) [%] | % MICE BLOCKED (oral, nalbuphine.HCl 0, acetaminophen 238 mg/kg) [%] | peak time for analgesia (oral) [min] | ED50 AT 5 MIN., Nalbuphine . HCl (Table 1, oral, nalbuphine.HCl component dose (alone or in combination), 95% confidence limits printed on adjacent line) [mg/kg] | % MICE BLOCKED (oral, nalbuphine.HCl 1.9 mg/kg, acetaminophen 0) [%] | % MICE BLOCKED (oral, nalbuphine.HCl 3.8 mg/kg, acetaminophen 0) [%] | % MICE BLOCKED (oral, nalbuphine.HCl 7.6 mg/kg, acetaminophen 0) [%] | % MICE BLOCKED (oral, nalbuphine.HCl 15.2 mg/kg, acetaminophen 0) [%] | % MICE BLOCKED (oral, nalbuphine.HCl 30.4 mg/kg, acetaminophen 0) [%]
1 | CC(=O)Nc1ccc(O)cc1 [Acetaminophen, N-(4-hydroxyphenyl)acetamide] | 119 | 151 | 20 | 23 | 55 | 5 | – | – | – | – | – | –
2 | Oc1ccc2c3c1O[C@H]1[C@@H](O)CC[C@@]4(O)[C@@H](C2)N(CC2CCC2)CC[C@]314 [Nalbuphine . HCl, (-)-17-(cyclobutylmethyl)-4,5α-epoxymorphinan-3,6α, 14-triol] | 7.6 | – | – | – | – | 5 | 8.58 | 10 | 23 | 50 | 63 | 90
